Earlier results in publication PMC9851200, “Multiparameter phenotypic screening for endogenous TFEB and TFE3 translocation identifies novel chemical series modulating lysosome function” (Autophagy, 2022).

Columns and labels:
Set-up in all cases: method as in original PKIS2 published data
[1] = target: T1, kinases (KINOMEscan panel) (Homo sapiens, UniProt O14965); details: Published KINOMEscan; ref original PKIS2 published data; cited from earlier work
T1 sequence (O14965 1-403): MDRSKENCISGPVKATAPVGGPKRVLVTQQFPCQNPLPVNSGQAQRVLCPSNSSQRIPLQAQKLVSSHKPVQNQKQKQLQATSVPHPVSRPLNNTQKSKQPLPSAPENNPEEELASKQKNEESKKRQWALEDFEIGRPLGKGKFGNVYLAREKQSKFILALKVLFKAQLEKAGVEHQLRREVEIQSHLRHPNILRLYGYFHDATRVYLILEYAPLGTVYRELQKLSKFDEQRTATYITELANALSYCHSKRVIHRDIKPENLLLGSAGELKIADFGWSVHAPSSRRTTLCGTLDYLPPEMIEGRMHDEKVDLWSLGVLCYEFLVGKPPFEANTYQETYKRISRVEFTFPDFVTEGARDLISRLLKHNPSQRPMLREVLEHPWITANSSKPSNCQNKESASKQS

[2] = target: kinases (KINOMEscan panel) (Homo sapiens, UniProt O60331); details: PIP5K1C; Published KINOMEscan; ref original PKIS2 published data; cited from earlier work
[3] = target: kinases (KINOMEscan panel) (Homo sapiens, UniProt Q9BWU1); details: kinase CDK19; Published KINOMEscan; ref original PKIS2 published data; cited from earlier work
[4] = target: T2, kinases (KINOMEscan panel) (Homo sapiens, UniProt Q08881); details: kinase ITK; Published KINOMEscan; ref original PKIS2 published data; cited from earlier work
T2 sequence (Q08881 1-620): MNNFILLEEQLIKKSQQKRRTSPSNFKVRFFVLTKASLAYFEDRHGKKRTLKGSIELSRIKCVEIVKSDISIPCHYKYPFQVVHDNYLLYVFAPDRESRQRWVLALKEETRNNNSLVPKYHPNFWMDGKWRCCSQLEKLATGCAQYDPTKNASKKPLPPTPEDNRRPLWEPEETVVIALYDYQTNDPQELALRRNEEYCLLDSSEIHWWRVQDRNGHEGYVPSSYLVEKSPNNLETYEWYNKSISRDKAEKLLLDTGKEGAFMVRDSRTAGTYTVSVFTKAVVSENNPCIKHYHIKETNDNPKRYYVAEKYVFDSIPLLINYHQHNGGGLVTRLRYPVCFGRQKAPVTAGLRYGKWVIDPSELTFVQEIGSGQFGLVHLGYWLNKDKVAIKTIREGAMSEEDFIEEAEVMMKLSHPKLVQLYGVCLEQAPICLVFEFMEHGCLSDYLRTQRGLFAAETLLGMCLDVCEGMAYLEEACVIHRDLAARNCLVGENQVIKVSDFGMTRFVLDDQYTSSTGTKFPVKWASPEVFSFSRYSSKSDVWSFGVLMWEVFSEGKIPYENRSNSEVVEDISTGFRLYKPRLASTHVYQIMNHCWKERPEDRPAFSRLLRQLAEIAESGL

[5] = target: kinases (KINOMEscan panel) (Homo sapiens, UniProt Q9H3Y6); details: Published KINOMEscan; ref original PKIS2 published data; cited from earlier work
[6] = target: kinases (KINOMEscan panel) (Homo sapiens, UniProt P53355); details: kinase DAPK1; Published KINOMEscan; ref original PKIS2 published data; cited from earlier work
[7] = target: kinases (KINOMEscan panel) (Homo sapiens, UniProt P04049); details: RAF1; Published KINOMEscan; ref original PKIS2 published data; cited from earlier work
[8] = target: T3, kinases (KINOMEscan panel) (Homo sapiens, UniProt P36888); details: Published KINOMEscan, ref original PKIS2 published data, cited from earlier work
T3 sequence (P36888 27-993): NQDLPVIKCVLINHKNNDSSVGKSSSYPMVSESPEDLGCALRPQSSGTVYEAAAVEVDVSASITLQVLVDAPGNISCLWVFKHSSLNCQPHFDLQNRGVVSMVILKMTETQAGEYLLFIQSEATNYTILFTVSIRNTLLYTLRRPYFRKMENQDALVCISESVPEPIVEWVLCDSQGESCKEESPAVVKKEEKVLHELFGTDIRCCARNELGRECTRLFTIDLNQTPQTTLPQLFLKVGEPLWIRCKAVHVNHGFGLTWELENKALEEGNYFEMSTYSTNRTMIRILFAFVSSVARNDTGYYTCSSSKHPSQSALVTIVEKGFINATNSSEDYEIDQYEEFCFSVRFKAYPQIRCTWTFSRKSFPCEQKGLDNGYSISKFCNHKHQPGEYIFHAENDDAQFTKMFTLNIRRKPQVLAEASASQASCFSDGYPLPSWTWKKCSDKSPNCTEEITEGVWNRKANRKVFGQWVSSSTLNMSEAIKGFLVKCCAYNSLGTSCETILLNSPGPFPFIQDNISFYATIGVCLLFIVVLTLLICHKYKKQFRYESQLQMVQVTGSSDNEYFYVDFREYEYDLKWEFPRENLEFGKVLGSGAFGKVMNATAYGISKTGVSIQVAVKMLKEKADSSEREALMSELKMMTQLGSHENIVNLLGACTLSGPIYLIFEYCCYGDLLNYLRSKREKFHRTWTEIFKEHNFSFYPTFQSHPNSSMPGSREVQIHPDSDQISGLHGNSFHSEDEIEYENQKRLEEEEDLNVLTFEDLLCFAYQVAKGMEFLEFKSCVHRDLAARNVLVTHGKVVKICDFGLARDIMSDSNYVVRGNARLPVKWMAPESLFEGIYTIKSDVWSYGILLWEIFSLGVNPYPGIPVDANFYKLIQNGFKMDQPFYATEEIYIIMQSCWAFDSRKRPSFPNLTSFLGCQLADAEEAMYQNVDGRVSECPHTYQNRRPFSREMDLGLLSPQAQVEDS

[9] = target: kinases (KINOMEscan panel) (Homo sapiens, UniProt Q9UEW8); details: Published KINOMEscan; ref original PKIS2 published data; cited from earlier work
[10] = target: kinases (KINOMEscan panel) (Homo sapiens, UniProt P29376); details: LTK; Published KINOMEscan; ref original PKIS2 published data; cited from earlier work
Chain of kinases (KINOMEscan panel) (Homo sapiens, UniProt P29376) (P29376 17-864): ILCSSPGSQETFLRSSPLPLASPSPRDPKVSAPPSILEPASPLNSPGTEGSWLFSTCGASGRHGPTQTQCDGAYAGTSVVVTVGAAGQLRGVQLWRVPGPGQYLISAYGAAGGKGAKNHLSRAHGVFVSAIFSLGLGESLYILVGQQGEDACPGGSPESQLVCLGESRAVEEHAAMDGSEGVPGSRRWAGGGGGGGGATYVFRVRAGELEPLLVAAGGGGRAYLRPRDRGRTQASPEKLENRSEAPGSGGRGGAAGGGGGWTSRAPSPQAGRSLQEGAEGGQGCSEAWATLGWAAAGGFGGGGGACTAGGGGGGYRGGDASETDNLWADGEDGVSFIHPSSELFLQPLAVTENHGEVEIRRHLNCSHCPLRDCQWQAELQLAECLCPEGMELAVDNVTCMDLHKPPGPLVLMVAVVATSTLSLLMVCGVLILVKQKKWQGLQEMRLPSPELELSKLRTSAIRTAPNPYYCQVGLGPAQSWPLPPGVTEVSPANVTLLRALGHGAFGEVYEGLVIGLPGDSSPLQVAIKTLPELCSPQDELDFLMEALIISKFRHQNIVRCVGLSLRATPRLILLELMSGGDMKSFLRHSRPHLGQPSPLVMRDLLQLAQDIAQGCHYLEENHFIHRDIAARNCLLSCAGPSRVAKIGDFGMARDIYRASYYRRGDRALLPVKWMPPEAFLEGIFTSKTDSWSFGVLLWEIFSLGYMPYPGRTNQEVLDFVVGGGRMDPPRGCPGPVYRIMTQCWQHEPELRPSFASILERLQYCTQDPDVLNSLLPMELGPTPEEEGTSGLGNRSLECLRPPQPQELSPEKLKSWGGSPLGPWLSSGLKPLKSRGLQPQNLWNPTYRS

Chain of kinases (KINOMEscan panel) (Homo sapiens, UniProt Q9H3Y6) (Q9H3Y6 whole entry): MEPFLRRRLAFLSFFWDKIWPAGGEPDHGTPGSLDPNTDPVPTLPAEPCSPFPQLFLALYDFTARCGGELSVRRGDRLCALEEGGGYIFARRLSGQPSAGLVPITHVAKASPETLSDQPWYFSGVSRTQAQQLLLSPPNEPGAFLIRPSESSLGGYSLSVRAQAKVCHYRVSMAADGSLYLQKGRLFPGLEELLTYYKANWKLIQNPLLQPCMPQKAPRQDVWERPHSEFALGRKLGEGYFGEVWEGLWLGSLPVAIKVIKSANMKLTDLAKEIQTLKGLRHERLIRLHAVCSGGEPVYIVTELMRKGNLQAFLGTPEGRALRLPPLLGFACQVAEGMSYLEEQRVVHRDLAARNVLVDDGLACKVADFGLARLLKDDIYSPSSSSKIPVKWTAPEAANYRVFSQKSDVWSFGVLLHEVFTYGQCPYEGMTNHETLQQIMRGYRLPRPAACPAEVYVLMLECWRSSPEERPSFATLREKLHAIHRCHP
Chain of kinases (KINOMEscan panel) (Homo sapiens, UniProt Q9BWU1) (Q9BWU1 whole entry): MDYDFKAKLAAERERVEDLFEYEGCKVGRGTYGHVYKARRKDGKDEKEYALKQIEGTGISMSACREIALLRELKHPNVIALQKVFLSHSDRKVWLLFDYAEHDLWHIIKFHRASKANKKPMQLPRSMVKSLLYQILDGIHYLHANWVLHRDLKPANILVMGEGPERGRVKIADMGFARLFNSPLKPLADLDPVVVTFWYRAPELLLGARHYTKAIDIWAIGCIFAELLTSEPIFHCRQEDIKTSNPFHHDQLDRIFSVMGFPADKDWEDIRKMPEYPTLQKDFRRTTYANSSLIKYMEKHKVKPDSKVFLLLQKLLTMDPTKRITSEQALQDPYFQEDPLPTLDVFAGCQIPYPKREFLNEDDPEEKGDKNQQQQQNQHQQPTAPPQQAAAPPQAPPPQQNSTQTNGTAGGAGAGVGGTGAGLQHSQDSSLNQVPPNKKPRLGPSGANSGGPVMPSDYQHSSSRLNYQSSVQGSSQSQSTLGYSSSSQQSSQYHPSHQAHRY
Chain of kinases (KINOMEscan panel) (Homo sapiens, UniProt P04049) (P04049 whole entry): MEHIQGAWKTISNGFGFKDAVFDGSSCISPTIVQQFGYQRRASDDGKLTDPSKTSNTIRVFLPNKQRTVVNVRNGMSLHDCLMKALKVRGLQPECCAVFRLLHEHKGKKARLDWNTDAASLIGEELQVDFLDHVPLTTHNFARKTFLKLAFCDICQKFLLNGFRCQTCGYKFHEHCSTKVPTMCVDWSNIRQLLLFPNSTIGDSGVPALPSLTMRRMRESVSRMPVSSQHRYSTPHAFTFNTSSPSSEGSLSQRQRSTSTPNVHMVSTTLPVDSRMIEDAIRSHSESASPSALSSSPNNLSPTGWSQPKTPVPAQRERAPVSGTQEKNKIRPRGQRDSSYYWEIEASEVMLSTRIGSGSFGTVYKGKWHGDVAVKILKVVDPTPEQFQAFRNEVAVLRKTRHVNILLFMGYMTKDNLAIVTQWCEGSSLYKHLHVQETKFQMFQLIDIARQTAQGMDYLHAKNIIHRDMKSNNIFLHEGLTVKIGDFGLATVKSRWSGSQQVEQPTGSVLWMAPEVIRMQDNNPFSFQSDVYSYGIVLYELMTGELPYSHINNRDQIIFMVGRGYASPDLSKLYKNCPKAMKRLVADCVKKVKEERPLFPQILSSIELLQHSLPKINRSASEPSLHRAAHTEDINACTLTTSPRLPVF
Chain of kinases (KINOMEscan panel) (Homo sapiens, UniProt P53355) (P53355 whole entry): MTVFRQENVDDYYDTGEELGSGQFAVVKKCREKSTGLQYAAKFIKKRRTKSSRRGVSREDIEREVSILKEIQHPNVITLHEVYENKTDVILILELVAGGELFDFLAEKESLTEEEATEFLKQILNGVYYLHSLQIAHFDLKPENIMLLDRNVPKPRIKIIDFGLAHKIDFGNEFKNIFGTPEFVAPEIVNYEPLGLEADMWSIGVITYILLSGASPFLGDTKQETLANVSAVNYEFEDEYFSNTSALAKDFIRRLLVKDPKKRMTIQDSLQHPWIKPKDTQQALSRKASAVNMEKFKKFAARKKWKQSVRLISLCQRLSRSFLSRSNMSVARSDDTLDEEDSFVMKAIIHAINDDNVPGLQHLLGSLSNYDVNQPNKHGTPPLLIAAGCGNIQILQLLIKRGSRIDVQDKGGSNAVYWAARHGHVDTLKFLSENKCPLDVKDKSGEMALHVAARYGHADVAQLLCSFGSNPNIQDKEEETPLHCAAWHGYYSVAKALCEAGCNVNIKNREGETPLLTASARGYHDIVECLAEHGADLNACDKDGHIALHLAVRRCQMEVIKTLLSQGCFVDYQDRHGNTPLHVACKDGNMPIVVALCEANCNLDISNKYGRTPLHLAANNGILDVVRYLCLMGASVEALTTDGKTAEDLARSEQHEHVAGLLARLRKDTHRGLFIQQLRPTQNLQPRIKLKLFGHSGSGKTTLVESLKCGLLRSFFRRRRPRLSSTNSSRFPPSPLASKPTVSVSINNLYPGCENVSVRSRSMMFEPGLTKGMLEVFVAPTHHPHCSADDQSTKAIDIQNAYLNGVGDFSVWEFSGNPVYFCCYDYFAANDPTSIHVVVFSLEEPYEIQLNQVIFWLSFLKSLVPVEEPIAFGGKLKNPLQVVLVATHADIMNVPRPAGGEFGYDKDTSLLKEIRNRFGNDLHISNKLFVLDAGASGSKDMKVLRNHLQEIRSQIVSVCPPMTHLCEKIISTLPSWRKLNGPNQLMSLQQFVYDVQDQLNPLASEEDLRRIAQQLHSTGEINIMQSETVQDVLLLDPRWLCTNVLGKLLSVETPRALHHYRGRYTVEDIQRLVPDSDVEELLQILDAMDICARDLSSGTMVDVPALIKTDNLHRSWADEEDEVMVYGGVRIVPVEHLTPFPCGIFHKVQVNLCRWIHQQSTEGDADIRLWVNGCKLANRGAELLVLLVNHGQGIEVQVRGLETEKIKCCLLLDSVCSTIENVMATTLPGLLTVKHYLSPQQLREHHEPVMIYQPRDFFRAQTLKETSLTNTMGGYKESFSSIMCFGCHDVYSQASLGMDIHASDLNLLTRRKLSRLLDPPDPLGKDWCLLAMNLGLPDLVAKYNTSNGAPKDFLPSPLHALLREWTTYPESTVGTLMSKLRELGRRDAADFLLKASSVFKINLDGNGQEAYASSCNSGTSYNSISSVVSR
Chain of kinases (KINOMEscan panel) (Homo sapiens, UniProt O60331) (O60331 whole entry): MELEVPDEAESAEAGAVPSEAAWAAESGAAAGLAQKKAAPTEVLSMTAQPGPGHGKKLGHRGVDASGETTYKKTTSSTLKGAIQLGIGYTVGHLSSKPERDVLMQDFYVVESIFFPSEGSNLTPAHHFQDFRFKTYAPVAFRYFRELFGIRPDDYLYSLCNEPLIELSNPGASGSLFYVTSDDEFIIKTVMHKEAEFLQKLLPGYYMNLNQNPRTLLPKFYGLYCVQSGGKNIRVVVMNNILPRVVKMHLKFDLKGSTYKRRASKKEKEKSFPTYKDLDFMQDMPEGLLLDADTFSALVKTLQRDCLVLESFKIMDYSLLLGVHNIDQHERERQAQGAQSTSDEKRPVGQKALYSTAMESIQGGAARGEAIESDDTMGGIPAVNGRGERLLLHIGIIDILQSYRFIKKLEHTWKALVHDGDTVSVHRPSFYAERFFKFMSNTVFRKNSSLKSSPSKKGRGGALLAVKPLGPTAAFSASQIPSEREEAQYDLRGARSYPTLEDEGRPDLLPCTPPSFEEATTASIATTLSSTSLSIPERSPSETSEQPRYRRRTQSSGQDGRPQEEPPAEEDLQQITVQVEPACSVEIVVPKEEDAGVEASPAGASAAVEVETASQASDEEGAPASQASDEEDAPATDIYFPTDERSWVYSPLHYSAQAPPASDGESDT

For `Cc1cccc(-c2nc(Nc3ccncc3)c3ccccc3n2)n1` [NK215], the “KINOMEscan AURKA” value [1] is given as 0, the “KINOMEscan PIP5K1C” value [2] is given as 40 and the “KINOMEscan CDK19” value [3] is given as 0. The “KINOMEscan ITK” value [4] was 24, the “KINOMEscan SRMS” value [5] was 0 and the “KINOMEscan DAPK1” value [6] was 0. For the same compound, the “KINOMEscan RAF1” value [7] was 39, the “KINOMEscan FLT3” value ([8]; FLT3) was 0 and the “KINOMEscan FLT3-autoinhibited” value ([8]; kinase FLT3-autoinhibited) was 0. For the same compound, the “KINOMEscan STK39” value [9] was 0 and the “KINOMEscan LTK” value [10] was 21.
